Laboratory results from patent US20200115412A1, “SEPARATION OF VANCOMYCIN AND ITS DEGRADATION PRODUCTS” (SAVARA INC., priority 2018, published 2020).
Counter-ions that a name gives are not always drawn. Like-named read-outs stand apart in the source and are kept apart here.

What was measured:
[1] = Impurities in AeroVanc vancomycin powder stored for three months at 5° C. and 25° C., improved HPLC impurity method; assay type: physicochemical
Description: Calculate the concentration of each individual impurity in samples 1A, 2A and 3A, as follows:
Where: • I %i=Impurity concentration in sample 1A, 2A or 3A (as percentage) • 10=Dilution factor (50 mL/5.0 mL) • CV=Vancomycin concentration in sample solutions 1B, 2B or 3B (μg/mL) • Ci=Concentration of impurity in sample solution 1A, 2A or 3A (μg/mL) • Ci,total=Total concentration of impurities in sample solutions 1A, 2A or 3A
The method disclosed herein was also applied to the determination of degradation products of AeroVanc vancomycin powder stored for three months at 5° C. and 25° C.

[2] = Stated stability and handling properties; assay type: physicochemical; conditions: reference standards handling
Description: Vancomycin is a potent antibiotic reserved for serious drug-resistant bacterial infections including intravenous infusion for complicated infection (including MRSA) and oral administration for severe gastro-intestinal (GI) infections caused by Clostridium difficile. It was first isolated from soil bacterium (Amycolatopis orientalis) by Kornfeld in 1953, and first commercialized by Eli Lilly in 1954. Vancomycin, which is listed on the WHO's List of Essential Medicines, is a complex glycopeptide derived from N. orientalis with significant analytical challenges, including the presence of at least 12 identified impurities and a greater number of unknown impurities. […] Vancomycin has six ionizable groups and some of the impurities have seven. It is difficult to handle (high surface energy) and difficult to formulate. AeroVanc is a dry-powder inhalation product (DPI) under development for the treatment of methicillin resistant S. aureus (MRSA) infections in the lungs of cystic fibrosis patients. AeroVanc (vancomycin hydrochloride inhalation powder) contains the antibiotic and a single excipient, L-leucine. AeroVanc comprises a dry powder formulation which is delivered to the lungs by oral inhalation using a unit dose delivery device.

[3] = Impurity profiles of vancomycin degraded in solution and solid state (FIG. 22); assay type: physicochemical
Description: The method disclosed herein was successfully applied to the determination of degradation products of vancomycin in the solution and solid states.

[4] = background statement; cited from earlier work
[5] = AeroVanc vancomycin powder stored three months at 5° C.
[6] = AeroVanc vancomycin powder stored three months at 25° C.

Row | Compound | Impurity (%) [1, 5] | Impurity (%) [1, 6] | further results
1 | CC(C)C[C@@H](N)C(=O)N[C@H]1C(=O)N[C@@H](CC(N)=O)C(=O)N[C@H]2C(=O)N[C@H]3C(=O)N[C@H](C(=O)N[C@H](C(=O)O)c4cc(O)cc(O)c4-c4cc3ccc4O)[C@H](O)c3ccc(c(Cl)c3)Oc3cc2cc(c3O[C@@H]2O[C@H](CO)[C@@H](O)[C@H](O)[C@H]2O[C@H]2C[C@](C)(N)[C@H](O)[C@H](C)O2)Oc2ccc(cc2Cl)[C@H]1O [N-demethyl, N-demethyl-vancomycin (EP Impurity A)] | 1.757% | 1.722% | –
2 | CC(C)C[C@H](C(=O)N[C@H]1C(=O)N[C@@H](CC(N)=O)C(=O)N[C@H]2C(=O)NC3C(=O)N[C@H](C(=O)N[C@H](C(=O)O)c4cc(O)cc(O)c4-c4cc3ccc4O)[C@H](O)c3ccc(c(Cl)c3)Oc3cc2cc(c3O[C@@H]2OC(CO)C(O)C(O)[C@H]2O[C@H]2C[C@](C)(N)[C@H](O)[C@H](C)O2)Oc2ccc(cc2Cl)[C@H]1O)N(C)C (some centres unmarked) [N-methyl, N-methyl-vancomycin] | 0.019% | 0.027% | –
3 | CN[C@H](CC(C)C)C(=O)N[C@H]1C(=O)N[C@@H](CC(N)=O)C(=O)N[C@H]2C(=O)N[C@H]3C(=O)N[C@H](C(=O)N[C@H](C(=O)O)c4cc(O)cc(O)c4-c4cc3ccc4O)[C@H](O)c3ccc(c(Cl)c3)Oc3cc2cc(c3O[C@@H]2O[C@H](CO)[C@@H](O)[C@H](O)[C@H]2O[C@H]2C[C@](C)(N)[C@H](O)[C@H](C)O2)Oc2ccc(cc2Cl)[C@H]1O [Vancomycin HCl, vancomycin hydrochloride] | – | – | light sensitivity and hygroscopicity [2]: light sensitive and hygroscopic
4 | CN[C@H](CC(C)C)C(=O)N[C@H]1C(=O)N[C@@H](CC(N)=O)C(=O)N[C@H]2C(=O)N[C@H]3C(=O)N[C@H](C(=O)N[C@H](C(=O)O)c4cc(O)cc(O)c4-c4cc3ccc4O)[C@H](O)c3ccc(c(Cl)c3)Oc3cc2cc(c3O[C@@H]2O[C@H](CO)[C@@H](O)[C@H](O)[C@H]2O[C@H]2C[C@](C)(N)[C@H](O)[C@H](C)O2)Oc2ccc(cc2Cl)[C@H]1O [Vancomycin] | – | – | impurity profile of degraded vancomycin ([3]; degraded in aqueous solution, compared to the degraded solid): larger amounts of CDP-1 Minor, CPD-1 Major and additional unknowns; impurity profile of degraded vancomycin ([3]; degraded solid, compared to the degraded aqueous solution): increased desamido-succinimide vancomycin and agluco vancomycin; net charge (at high pH): −4; net charge (at low pH): +2; net charge (plateau region between pH 3.5 and 5.5): +1; stability at room temperature [4]: unstable at room temperature
5 | Agluco-vancomycin (EP Impurity C) | 0.139% | 0.163% | –
6 | Cis-chloro-(2)-vancomycin | 0.194% | 0.200% | –
7 | De-((L-asn)-L-gln-vancomycin (EP Impurity B) [De-(L-Asn)-L-Gln] | 0.152% | 0.151% | –
8 | Des-(amido)-aspartyl-vancomycin (CDP-1 minor) [CDP-1minor] | 0.017% | 0.026% | –
9 | Des-(amido)-succinimido- vancomycin [Des-amido-succinimido] | 0.577% | 0.759% | –
10 | Desvancosamino-vancomycin (EP Impurity D) [Des-vancosamino] | 0.343% | 0.398% | –
11 | Epi-(26R)-vancomycin [Epi-26(R)] | 0.610% | 0.628% | –
12 | Monodechloro-(2)-vancomycin | 0.069% | 0.072% | –
13 | Monodechloro-(6)-vancomycin [Mono-dechloro-(6)] | 0.679% | 0.671% | –
